According to ChEMBL document CHEMBL1201862, “PubChem BioAssay data set” (2004):
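Compound exposure: 48 hours, 5 concentrations, 96-well plates. Abbreviation: GI50, concentration required for 50% inhibition of growth.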 Calls of active or inactive are those of the source. Rule as the data show it: active = GI50 up to about 1.1 µM and inactive = higher.

Columns and labels:
Test in all cases: NCI tumour cell line growth inhibition, 48 h
A498 = tested on: A498
HL-60 = tested on: HL-60
HCT-116 = tested on: HCT-116
HT-29 = tested on: HT-29
OVCAR-5 = tested on: OVCAR-5
MCF7 = tested on: MCF7
DU-145 = tested on: DU-145
OVCAR-8 = tested on: OVCAR-8
EKVX = tested on: EKVX
HCC 2998 = tested on: HCC 2998
LOX IMVI = tested on: LOX IMVI
Hs-578T = tested on: Hs-578T
SF-295 = tested on: SF-295
PC-3 = tested on: PC-3
KM12 = tested on: KM12
SNB-75 = tested on: SNB-75
SNB-19 = tested on: SNB-19
COLO 205 = tested on: COLO 205
SK-MEL-28 = tested on: SK-MEL-28
SN12C = tested on: SN12C
UACC-62 = tested on: UACC-62
CCRF-CEM = tested on: CCRF-CEM
MDA-MB-231 = tested on: MDA-MB-231
OVCAR-4 = tested on: OVCAR-4
M14 = tested on: M14
SF-268 = tested on: SF-268
NCI/ADR-RES = tested on: NCI/ADR-RES
SW-620 = tested on: SW-620
NCI-H23 = tested on: NCI-H23
NCI-H460 = tested on: NCI-H460
BT-549 = tested on: BT-549
RXF 393 = tested on: RXF 393
786-0 = tested on: 786-0
SR = tested on: SR
MDA-MB-435 = tested on: MDA-MB-435
UO-31 = tested on: UO-31
NCI-H226 = tested on: NCI-H226
Malme-3M = tested on: Malme-3M
T47D = tested on: T47D
SK-MEL-2 = tested on: SK-MEL-2
OVCAR-3 = tested on: OVCAR-3
RPMI-8226 = tested on: RPMI-8226
SK-OV-3 = tested on: SK-OV-3
MDA-N = tested on: MDA-N
K562 = tested on: K562
MOLT-4 = tested on: MOLT-4
HOP-62 = tested on: HOP-62
SF-539 = tested on: SF-539
HCT-15 = tested on: HCT-15
IGROV-1 = tested on: IGROV-1
U-251 = tested on: U-251
CAKI-1 = tested on: CAKI-1
A549 = tested on: A549
NCI-H522 = tested on: NCI-H522
ACHN = tested on: ACHN
UACC-257 = tested on: UACC-257
TK-10 = tested on: TK-10
SK-MEL-5 = tested on: SK-MEL-5
HOP-92 = tested on: HOP-92

For `O=c1[nH]nc(Cc2ccccc2)n1CCCl`, the GI50 (A498) was > 100 µM (inactive), the GI50 (HL-60) was > 100 µM (inactive) and the GI50 (HCT-116) was > 100 µM (inactive). For the same compound, the GI50 (HT-29) was > 100 µM (inactive), the GI50 (OVCAR-5) was > 100 µM (inactive) and the GI50 (MCF7) was > 100 µM (inactive). For the same compound, the GI50 (DU-145) was > 100 µM (inactive), the GI50 (OVCAR-8) was > 100 µM (inactive) and the GI50 (EKVX) was > 100 µM (inactive). For the same compound, the GI50 (HCC 2998) was > 100 µM (inactive), the GI50 (LOX IMVI) was > 100 µM (inactive) and the GI50 (Hs-578T) was > 100 µM (inactive). The GI50 (SF-295) was > 100 µM (inactive), the GI50 (PC-3) was > 100 µM (inactive) and the GI50 (KM12) was > 100 µM (inactive). For the same compound, the GI50 (SNB-75) was > 100 µM (inactive), the GI50 (SNB-19) was > 100 µM (inactive) and the GI50 (COLO 205) was > 100 µM (inactive). For the same compound, the GI50 (SK-MEL-28) was > 100 µM (inactive), the GI50 (SN12C) was > 100 µM (inactive) and the GI50 (UACC-62) was > 100 µM (inactive). For the same compound, the GI50 (CCRF-CEM) was > 100 µM (inactive), the GI50 (MDA-MB-231) was > 100 µM (inactive) and the GI50 (OVCAR-4) was > 100 µM (inactive). For the same compound, the GI50 (M14) was > 100 µM (inactive), the GI50 (SF-268) was > 100 µM (inactive) and the GI50 (NCI/ADR-RES) was > 100 µM (inactive). For the same compound, the GI50 (SW-620) was > 100 µM (inactive), the GI50 (NCI-H23) was > 100 µM (inactive) and the GI50 (NCI-H460) was > 100 µM (inactive). The GI50 (BT-549) was > 100 µM (inactive), the GI50 (RXF 393) was 90.8 µM (inactive) and the GI50 (786-0) was > 100 µM (inactive). The GI50 (SR) was > 100 µM (inactive), the GI50 (MDA-MB-435) was > 100 µM (inactive) and the GI50 (UO-31) was > 100 µM (inactive). The GI50 (NCI-H226) was > 100 µM (inactive), the GI50 (Malme-3M) was > 100 µM (inactive) and the GI50 (T47D) was > 100 µM (inactive). The GI50 (SK-MEL-2) was > 100 µM (inactive), the GI50 (OVCAR-3) was > 100 µM (inactive) and the GI50 (RPMI-8226) was > 100 µM (inactive). The GI50 (SK-OV-3) was > 100 µM (inactive), the GI50 (MDA-N) was > 100 µM (inactive) and the GI50 (K562) was > 100 µM (inactive). The GI50 (MOLT-4) was > 100 µM (inactive), the GI50 (HOP-62) was > 100 µM (inactive) and the GI50 (SF-539) was > 100 µM (inactive). For the same compound, the GI50 (HCT-15) was > 100 µM, the GI50 (IGROV-1) was > 100 µM (inactive) and the GI50 (U-251) was > 100 µM (inactive). For the same compound, the GI50 (CAKI-1) was > 100 µM (inactive).
With `COc1cc2c(cc1O)C(=O)O[C@@H]1CC=C3CCN(C)[C@H]3[C@H]21` the GI50 (A498) was > 25 µM (inactive), the GI50 (HCT-116) was > 25 µM (inactive) and the GI50 (A549) was > 25 µM (inactive). For the same compound, the GI50 (NCI-H522) was > 25 µM (inactive), the GI50 (HT-29) was > 25 µM (inactive) and the GI50 (OVCAR-5) was > 25 µM (inactive). The GI50 (MCF7) was > 25 µM (inactive), the GI50 (DU-145) was > 25 µM (inactive) and the GI50 (OVCAR-8) was > 25 µM (inactive). For the same compound, the GI50 (EKVX) was > 25 µM (inactive), the GI50 (HCC 2998) was > 25 µM (inactive) and the GI50 (Hs-578T) was > 25 µM (inactive). For the same compound, the GI50 (SF-295) was > 25 µM (inactive), the GI50 (PC-3) was > 25 µM (inactive) and the GI50 (KM12) was > 25 µM (inactive). For the same compound, the GI50 (ACHN) was > 25 µM (inactive), the GI50 (SNB-75) was > 25 µM (inactive) and the GI50 (SNB-19) was > 25 µM (inactive). For the same compound, the GI50 (SK-MEL-28) was > 25 µM (inactive), the GI50 (SN12C) was > 25 µM (inactive) and the GI50 (UACC-62) was > 25 µM (inactive). For the same compound, the GI50 (CCRF-CEM) was > 25 µM (inactive), the GI50 (MDA-MB-231) was > 25 µM (inactive) and the GI50 (UACC-257) was > 25 µM (inactive). For the same compound, the GI50 (OVCAR-4) was > 25 µM (inactive), the GI50 (M14) was > 25 µM (inactive) and the GI50 (SF-268) was > 25 µM (inactive). For the same compound, the GI50 (NCI/ADR-RES) was > 25 µM (inactive), the GI50 (SW-620) was > 25 µM (inactive) and the GI50 (NCI-H23) was > 25 µM (inactive). For the same compound, the GI50 (BT-549) was > 25 µM (inactive), the GI50 (RXF 393) was > 25 µM (inactive) and the GI50 (786-0) was > 25 µM (inactive). The GI50 (SR) was > 25 µM (inactive), the GI50 (MDA-MB-435) was > 25 µM (inactive) and the GI50 (UO-31) was > 25 µM (inactive). For the same compound, the GI50 (NCI-H226) was > 25 µM (inactive), the GI50 (Malme-3M) was > 25 µM (inactive) and the GI50 (T47D) was > 25 µM (inactive). For the same compound, the GI50 (SK-MEL-2) was > 25 µM (inactive), the GI50 (OVCAR-3) was > 25 µM (inactive) and the GI50 (RPMI-8226) was > 25 µM (inactive). For the same compound, the GI50 (SK-OV-3) was > 25 µM (inactive), the GI50 (MDA-N) was > 25 µM (inactive) and the GI50 (TK-10) was > 25 µM (inactive). The GI50 (K562) was > 25 µM (inactive), the GI50 (MOLT-4) was > 25 µM (inactive) and the GI50 (HOP-62) was > 25 µM (inactive). For the same compound, the GI50 (HCT-15) was > 25 µM, the GI50 (IGROV-1) was > 25 µM (inactive) and the GI50 (U-251) was > 25 µM (inactive). The GI50 (SK-MEL-5) was > 25 µM (inactive) and the GI50 (CAKI-1) was > 25 µM (inactive).
For `CC12CC(=O)C3C(CCC4=CC(=O)CCC43C)C1CC=C2CC(=O)O` (stereo not drawn), the GI50 (A498) was > 100 µM (inactive), the GI50 (HL-60) was > 100 µM (inactive) and the GI50 (HCT-116) was > 100 µM (inactive). For the same compound, the GI50 (A549) was > 100 µM (inactive), the GI50 (NCI-H522) was > 100 µM (inactive) and the GI50 (HT-29) was > 100 µM (inactive). The GI50 (OVCAR-5) was > 100 µM (inactive), the GI50 (MCF7) was > 100 µM (inactive) and the GI50 (DU-145) was > 100 µM (inactive). For the same compound, the GI50 (OVCAR-8) was > 100 µM (inactive), the GI50 (EKVX) was > 100 µM (inactive) and the GI50 (LOX IMVI) was > 100 µM (inactive). The GI50 (Hs-578T) was > 100 µM (inactive), the GI50 (SF-295) was > 100 µM (inactive) and the GI50 (PC-3) was > 100 µM (inactive). The GI50 (KM12) was > 100 µM (inactive), the GI50 (ACHN) was > 100 µM (inactive) and the GI50 (SNB-75) was > 100 µM (inactive). For the same compound, the GI50 (SNB-19) was > 100 µM (inactive), the GI50 (COLO 205) was > 100 µM (inactive) and the GI50 (SK-MEL-28) was > 100 µM (inactive). The GI50 (SN12C) was > 100 µM (inactive), the GI50 (UACC-62) was > 100 µM (inactive) and the GI50 (CCRF-CEM) was > 100 µM (inactive). The GI50 (MDA-MB-231) was > 100 µM (inactive), the GI50 (UACC-257) was > 100 µM (inactive) and the GI50 (OVCAR-4) was > 100 µM (inactive). For the same compound, the GI50 (M14) was > 100 µM (inactive), the GI50 (SF-268) was > 100 µM (inactive) and the GI50 (NCI/ADR-RES) was > 100 µM (inactive). For the same compound, the GI50 (SW-620) was > 100 µM (inactive), the GI50 (NCI-H23) was > 100 µM (inactive) and the GI50 (NCI-H460) was > 100 µM (inactive). The GI50 (BT-549) was > 100 µM (inactive), the GI50 (RXF 393) was > 100 µM (inactive) and the GI50 (786-0) was > 100 µM (inactive). The GI50 (SR) was > 100 µM (inactive), the GI50 (MDA-MB-435) was > 100 µM (inactive) and the GI50 (UO-31) was > 100 µM (inactive). For the same compound, the GI50 (NCI-H226) was > 100 µM (inactive), the GI50 (Malme-3M) was > 100 µM (inactive) and the GI50 (T47D) was > 100 µM (inactive). The GI50 (SK-MEL-2) was > 100 µM (inactive), the GI50 (OVCAR-3) was 98.2 µM (inactive) and the GI50 (RPMI-8226) was > 100 µM (inactive). For the same compound, the GI50 (SK-OV-3) was > 100 µM (inactive), the GI50 (MDA-N) was > 100 µM (inactive) and the GI50 (HOP-92) was > 100 µM (inactive). For the same compound, the GI50 (TK-10) was > 100 µM (inactive), the GI50 (K562) was > 100 µM (inactive) and the GI50 (MOLT-4) was > 100 µM (inactive). The GI50 (HOP-62) was > 100 µM (inactive), the GI50 (SF-539) was > 100 µM (inactive) and the GI50 (HCT-15) was > 100 µM. The GI50 (IGROV-1) was > 100 µM (inactive), the GI50 (U-251) was > 100 µM (inactive) and the GI50 (SK-MEL-5) was > 100 µM (inactive). For the same compound, the GI50 (CAKI-1) was > 100 µM (inactive).
